Molecules are shown by their SMILES.

The source of these data is paper PMC5218480 (PLoS ONE, 2017).

In the assay the test system is MV-4-11 cells. The assay is described as follows: Gene expression microarray analysis (Affymetrix PrimeView) and GSEA. It counts as cell-based, human. The note with it: ProbeSet 11716931_at; LIST B. Also noted: RFU PODN (11730768_x_at) / Fold change /veh PODN (11730768_x_at) / RFU LINC00158 (11744669_a_at) / Fold change /veh LINC00158 (11744669_a_at) / RFU DUSP10 (11751237_a_at) / Fold change /veh DUSP10 (11751237_a_at) / RFU ID3 (11757404_x_at) / Fold change /veh ID3 (11757404_x_at) / RFU PLEKHG5 (11737974_s_at) / Fold change /veh PLEKHG5 (11737974_s_at) / RFU LRRC4B (11730491_at) / Fold change /veh LRRC4B (11730491_at) / RFU GIMAP4 (11747438_a_at) / Fold change /veh GIMAP4 (11747438_a_at) / RFU KRT8 (11758183_x_at) / Fold change /veh KRT8 (11758183_x_at) / RFU CNN1 (11734310_a_at) / Fold change /veh CNN1 (11734310_a_at) / RFU VPS37D (11726825_at) / Fold change /veh VPS37D (11726825_at) / RFU C10orf10 (11716522_x_at) / Fold change /veh C10orf10 (11716522_x_at) / RFU KIR2DL2 /// KIR2DL4 /// KIR2DL5A /// KIR2DL5B /// KIR2DS1 /// KIR2DS2 /// KIR2DS3 /// KIR2DS4 /// KIR3DL3 /// KIR3DL3 /// KIR3DS1 (11738374_at) / Fold change /veh KIR2DL2 /// KIR2DL4 /// KIR2DL5A /// KIR2DL5B /// KIR2DS1 /// KIR2DS2 /// KIR2DS3 /// KIR2DS4 /// KIR3DL3 /// KIR3DL3 /// KIR3DS1 (11738374_at) / RFU C1QL1 (11718748_at) / Fold change /veh C1QL1 (11718748_at) / RFU TMPRSS4 (11747572_a_at) / Fold change /veh TMPRSS4 (11747572_a_at) / RFU HAMP (11756126_x_at) / Fold change /veh HAMP (11756126_x_at) / RFU RNFT2 (11725882_a_at) / Fold change /veh RNFT2 (11725882_a_at) / RFU NR4A2 (11747474_a_at) / Fold change /veh NR4A2 (11747474_a_at) / RFU ABCC12 (11746883_a_at) / Fold change /veh ABCC12 (11746883_a_at) / RFU TMEM136 (11760407_x_at) / Fold change /veh TMEM136 (11760407_x_at) / RFU CLDN22 /// WWC2 (11732394_at) / Fold change /veh CLDN22 /// WWC2 (11732394_at) / RFU HLA-DPB1 (11760878_x_at) / Fold change /veh HLA-DPB1 (11760878_x_at) / RFU SPINT1 (11716480_a_at) / Fold change /veh SPINT1 (11716480_a_at) / RFU GAP43 (11754022_s_at) / Fold change /veh GAP43 (11754022_s_at) / RFU A4GNT (11735810_at) / Fold change /veh A4GNT (11735810_at) / RFU PRB3 (11715151_x_at) / Fold change /veh PRB3 (11715151_x_at) / RFU TUBB4B (11761932_at) / Fold change /veh TUBB4B (11761932_at) / RFU CAPN14 (11732068_a_at) / Fold change /veh CAPN14 (11732068_a_at) / RFU TMCC2 (11721928_a_at) / Fold change /veh TMCC2 (11721928_a_at) / RFU IRGQ (11745062_a_at) / Fold change /veh IRGQ (11745062_a_at) / RFU FAM174B (11720279_a_at) / Fold change /veh FAM174B (11720279_a_at) / RFU TMPRSS4 (11748680_a_at) / Fold change /veh TMPRSS4 (11748680_a_at) / RFU FAM212B (11763350_a_at) / Fold change /veh FAM212B (11763350_a_at) / RFU PLEKHG5 (11743358_a_at) / Fold change /veh PLEKHG5 (11743358_a_at) / RFU ZSCAN30 (11745921_a_at) / Fold change /veh ZSCAN30 (11745921_a_at) / RFU CMKLR1 (11741424_a_at) / Fold change /veh CMKLR1 (11741424_a_at) / RFU LOC101060620 /// MAPK8IP1 (11723275_at) / Fold change /veh LOC101060620 /// MAPK8IP1 (11723275_at) / RFU SPTSSB (11747773_x_at) / Fold change /veh SPTSSB (11747773_x_at) / RFU PRSS12 (11739890_at) / Fold change /veh PRSS12 (11739890_at) / RFU BIN1 (11741810_x_at) / Fold change /veh BIN1 (11741810_x_at) / RFU WNT11 (11732464_a_at) / Fold change /veh WNT11 (11732464_a_at) / RFU C10orf10 (11716521_a_at) / Fold change /veh C10orf10 (11716521_a_at) / RFU C5orf56 (11738089_at) / Fold change /veh C5orf56 (11738089_at) / RFU CYB561 (11721691_x_at) / Fold change /veh CYB561 (11721691_x_at) / RFU ANKRD19P (11752326_a_at) / Fold change /veh ANKRD19P (11752326_a_at) / RFU OR2T12 /// OR2T33 /// OR2T8 (11738714_s_at) / Fold change /veh OR2T12 /// OR2T33 /// OR2T8 (11738714_s_at) / RFU VCAN (11748164_a_at) / Fold change /veh VCAN (11748164_a_at) / RFU JSRP1 (11732532_at) / Fold change /veh JSRP1 (11732532_at) / RFU KRTAP10-11 (11738290_x_at) / Fold change /veh KRTAP10-11 (11738290_x_at) / RFU MYO3A (11730013_a_at) / Fold change /veh MYO3A (11730013_a_at) / RFU EBF3 (11725865_a_at) / Fold change /veh EBF3 (11725865_a_at) / RFU CAMK2N1 (11719241_x_at) / Fold change /veh CAMK2N1 (11719241_x_at) / RFU C5orf56 (11738088_a_at) / Fold change /veh C5orf56 (11738088_a_at) / RFU OLFML3 (11715873_a_at) / Fold change /veh OLFML3 (11715873_a_at) / RFU LOC100653217 /// NTM (11731650_a_at) / Fold change /veh LOC100653217 /// NTM (11731650_a_at) / RFU MAPK11 (11762145_a_at) / Fold change /veh MAPK11 (11762145_a_at) / RFU FIZ1 (11724087_x_at) / Fold change /veh FIZ1 (11724087_x_at) / RFU OASL (11726364_x_at) / Fold change /veh OASL (11726364_x_at) / RFU SOX15 (11748057_x_at) / Fold change /veh SOX15 (11748057_x_at) / RFU CD79A (11719716_a_at) / Fold change /veh CD79A (11719716_a_at) / RFU HIST1H1D (11736915_at) / Fold change /veh HIST1H1D (11736915_at) / RFU CASKIN2 (11723855_a_at) / Fold change /veh CASKIN2 (11723855_a_at) / RFU LOC730098 (11760151_x_at) / Fold change /veh LOC730098 (11760151_x_at) / RFU OR4N2 (11742367_at) / Fold change /veh OR4N2 (11742367_at) / RFU PRRT2 (11749266_a_at) / Fold change /veh PRRT2 (11749266_a_at) / RFU SNX32 (11753110_a_at) / Fold change /veh SNX32 (11753110_a_at) / RFU CDHR5 (11726645_a_at) / Fold change /veh CDHR5 (11726645_a_at) / RFU RCAN1 (11760418_a_at) / Fold change /veh RCAN1 (11760418_a_at) / RFU FAM167A (11723789_a_at) / Fold change /veh FAM167A (11723789_a_at) / RFU FAM26E (11764081_at) / Fold change /veh FAM26E (11764081_at) / RFU ISYNA1 (11749810_s_at) / Fold change /veh ISYNA1 (11749810_s_at) / RFU ACY1 (11761880_at) / Fold change /veh ACY1 (11761880_at) / RFU 11764098_at / Fold change /veh 11764098_at / RFU SAMD14 (11745864_x_at) / Fold change /veh SAMD14 (11745864_x_at) / RFU NPB (11741838_a_at) / Fold change /veh NPB (11741838_a_at) / RFU TMPRSS6 (11731388_a_at) / Fold change /veh TMPRSS6 (11731388_a_at) / RFU KRTAP10-2 (11738614_at) / Fold change /veh KRTAP10-2 (11738614_at) / RFU ARHGAP8 /// PRR5-ARHGAP8 (11727945_x_at) / Fold change /veh ARHGAP8 /// PRR5-ARHGAP8 (11727945_x_at) / RFU KRTAP5-7 /// NADSYN1 (11734609_at) / Fold change /veh KRTAP5-7 /// NADSYN1 (11734609_at) / RFU RASL12 (11751679_a_at) / Fold change /veh RASL12 (11751679_a_at) / RFU CDKN2B (11736163_a_at) / Fold change /veh CDKN2B (11736163_a_at) / RFU PRF1 (11729649_at) / Fold change /veh PRF1 (11729649_at) / RFU, ZNF638 /// ZNF638-IT1 / Fold change vs veh, ZNF638 /// ZNF638-IT1 / RFU, PANK3 / Fold change vs veh, PANK3 / RFU, SH3YL1 / Fold change vs veh, SH3YL1 / RFU, ZEB2 / Fold change vs veh, ZEB2 / RFU, NRIP1 / Fold change vs veh, NRIP1 / RFU, PTTG1IP / Fold change vs veh, PTTG1IP / RFU, CAPN2 / Fold change vs veh, CAPN2 / RFU, MED14 / Fold change vs veh, MED14 / RFU, SNORA58 / Fold change vs veh, SNORA58 / RFU, C1orf63 / Fold change vs veh, C1orf63 / RFU, LRRFIP1 / Fold change vs veh, LRRFIP1 / RFU, NDUFAF7 / Fold change vs veh, NDUFAF7 / RFU, SLC12A2 / Fold change vs veh, SLC12A2 / RFU, IBTK / Fold change vs veh, IBTK / RFU, ESF1 / Fold change vs veh, ESF1 / Fold change vs veh, TMEM50B / RFU, TAOK1 / Fold change vs veh, TAOK1 / RFU, ACBD3 / Fold change vs veh, ACBD3 / RFU, TMA16 / Fold change vs veh, TMA16 / RFU, RWDD3 / Fold change vs veh, RWDD3 / RFU, BCAT1 / Fold change vs veh, BCAT1 / RFU, EDEM3 / Fold change vs veh, EDEM3 / RFU, TMEM33 / Fold change vs veh, TMEM33 / RFU, WDR75 / Fold change vs veh, WDR75 / RFU, AHCTF1 / Fold change vs veh, AHCTF1 / RFU, TFRC / Fold change vs veh, TFRC / RFU, ZDHHC17 / Fold change vs veh, ZDHHC17 / RFU, NOM1 / Fold change vs veh, NOM1 / RFU, ARL8B / Fold change vs veh, ARL8B / RFU, ZBTB11 / Fold change vs veh, ZBTB11 / RFU, TAMM41 / Fold change vs veh, TAMM41 / RFU, KIAA1704 /// LOC100996395 / Fold change vs veh, KIAA1704 /// LOC100996395 / RFU, ING1 / Fold change vs veh, ING1 / RFU, TRMT61B / Fold change vs veh, TRMT61B / RFU, FUBP3 / Fold change vs veh, FUBP3 / RFU, TP53 / Fold change vs veh, TP53 / RFU, TNKS2 / Fold change vs veh, TNKS2 / RFU, ZFP14 / Fold change vs veh, ZFP14 / RFU, ACTR2 / Fold change vs veh, ACTR2 / RFU, PPP3R1 / Fold change vs veh, PPP3R1 / RFU, PIK3R1 / Fold change vs veh, PIK3R1 / RFU, HNRNPA1 / Fold change vs veh, HNRNPA1 / RFU, RNF170 / Fold change vs veh, RNF170 / RFU, ZNF28 / Fold change vs veh, ZNF28 / RFU, RNGTT / Fold change vs veh, RNGTT / RFU, OGT / Fold change vs veh, OGT / RFU, BRD1 / Fold change vs veh, BRD1 / RFU, MARS / Fold change vs veh, MARS / RFU, ZNF655 / Fold change vs veh, ZNF655 / RFU, FAHD1 / Fold change vs veh, FAHD1 / RFU, BDP1 / Fold change vs veh, BDP1 / RFU, LRRCC1 / Fold change vs veh, LRRCC1 / RFU, ARID1A / Fold change vs veh, ARID1A / RFU, ZNF146 / Fold change vs veh, ZNF146 / RFU, ZNF330 / Fold change vs veh, ZNF330 / RFU, GPN3 / Fold change vs veh, GPN3 / RFU, C9orf123 / Fold change vs veh, C9orf123 / RFU, N4BP2L2 / Fold change vs veh, N4BP2L2 / RFU, ARFIP1 / Fold change vs veh, ARFIP1 / RFU, FAM179B / Fold change vs veh, FAM179B / RFU, BCL10 / Fold change vs veh, BCL10 / RFU, UHRF1BP1L / Fold change vs veh, UHRF1BP1L / RFU, BET1 / Fold change vs veh, BET1 / RFU, CNOT2 / Fold change vs veh, CNOT2 / RFU, ZNF268 / Fold change vs veh, ZNF268 / Fold change vs veh, ZNF507 / RFU, DGCR2 / Fold change vs veh, DGCR2 / RFU, WDSUB1 / Fold change vs veh, WDSUB1 / Fold change vs veh, HSP90B1 /// MIR3652 / RFU, ADSS / Fold change vs veh, ADSS / RFU, GK / Fold change vs veh, GK / RFU, ZNF148 / Fold change vs veh, ZNF148 / RFU, TAF9 / Fold change vs veh, TAF9 / RFU, SLC1A5 / Fold change vs veh, SLC1A5 / RFU, SLMO2 / Fold change vs veh, SLMO2 / RFU, ABCC4 / Fold change vs veh, ABCC4 / RFU, LOC101060439 /// RAP1B / Fold change vs veh, LOC101060439 /// RAP1B / RFU, RFX7 / Fold change vs veh, RFX7 / RFU, GTPBP10 / Fold change vs veh, GTPBP10 / RFU, CNEP1R1 / Fold change vs veh, CNEP1R1 / RFU, BIVM-ERCC5 /// ERCC5 / Fold change vs veh, BIVM-ERCC5 /// ERCC5 / RFU, ILF3 / Fold change vs veh, ILF3 / RFU 11762660_at / Fold change /veh 11762660_at / RFU VCAN (11757783_s_at) / Fold change /veh VCAN (11757783_s_at) / RFU DDX43 (11728927_at) / Fold change /veh DDX43 (11728927_at) / RFU KRT8 (11758188_x_at) / Fold change /veh KRT8 (11758188_x_at) / RFU NKD1 (11759106_at) / Fold change /veh NKD1 (11759106_at) / RFU SRD5A1 (11742802_a_at) / Fold change /veh SRD5A1 (11742802_a_at) / RFU TPSAB1 /// TPSB2 (11721975_s_at) / Fold change /veh TPSAB1 /// TPSB2 (11721975_s_at) / RFU GSTM3 (11746129_a_at) / Fold change /veh GSTM3 (11746129_a_at) / RFU IL23R (11737362_x_at) / Fold change /veh IL23R (11737362_x_at) / RFU TMEM51 (11727254_a_at) / Fold change /veh TMEM51 (11727254_a_at) / RFU PIWIL2 (11732686_x_at) / Fold change /veh PIWIL2 (11732686_x_at) / RFU ORM1 (11744905_x_at) / Fold change /veh ORM1 (11744905_x_at) / RFU CCDC152 (11743942_at) / Fold change /veh CCDC152 (11743942_at) / RFU ECM1 (11717891_a_at) / Fold change /veh ECM1 (11717891_a_at) / RFU IL23R (11748794_a_at) / Fold change /veh IL23R (11748794_a_at) / RFU TNFAIP8L3 (11732012_x_at) / Fold change /veh TNFAIP8L3 (11732012_x_at) / RFU MBOAT4 (11741988_at) / Fold change /veh MBOAT4 (11741988_at) / RFU 11764193_at / Fold change /veh 11764193_at / RFU TMEM53 (11763286_at) / Fold change /veh TMEM53 (11763286_at) / RFU MAGEB2 (11727129_at) / Fold change /veh MAGEB2 (11727129_at) / RFU TMEM200A (11744735_a_at) / Fold change /veh TMEM200A (11744735_a_at) / RFU CCDC152 (11751479_a_at) / Fold change /veh CCDC152 (11751479_a_at) / RFU FAM211A (11726209_a_at) / Fold change /veh FAM211A (11726209_a_at) / RFU RGS16 (11746705_a_at) / Fold change /veh RGS16 (11746705_a_at) / RFU VCAN (11755009_s_at) / Fold change /veh VCAN (11755009_s_at) / RFU RHOB (11743442_s_at) / Fold change /veh RHOB (11743442_s_at) / RFU RGS16 (11720943_a_at) / Fold change /veh RGS16 (11720943_a_at) / RFU RGS16 (11720944_at) / Fold change /veh RGS16 (11720944_at) / RFU, VPS4B / Fold change vs veh, VPS4B / RFU, CREB1 / Fold change vs veh, CREB1 / RFU, DNAJC13 / Fold change vs veh, DNAJC13 / RFU, GNAQ / Fold change vs veh, GNAQ / RFU, CDK5R1 / Fold change vs veh, CDK5R1 / RFU, ZRANB3 / Fold change vs veh, ZRANB3 / RFU, CUL4A / Fold change vs veh, CUL4A / RFU, CCNY / Fold change vs veh, CCNY / RFU, UFL1 / Fold change vs veh, UFL1 / RFU, COG3 / Fold change vs veh, COG3 / RFU, DIAPH2 / Fold change vs veh, DIAPH2 / RFU, SKA2 / Fold change vs veh, SKA2 / RFU, AFF3 / Fold change vs veh, AFF3 / RFU, LMF1 / Fold change vs veh, LMF1 / RFU, IPO11 / Fold change vs veh, IPO11 / RFU, DFFB / Fold change vs veh, DFFB / RFU, FOXP1 / Fold change vs veh, FOXP1 / RFU, CARD8 / Fold change vs veh, CARD8 / RFU, STRN3 / Fold change vs veh, STRN3 / RFU, ADK / Fold change vs veh, ADK / RFU, RASSF2 / Fold change vs veh, RASSF2 / RFU, WIPF1 / Fold change vs veh, WIPF1 / RFU, LARP1B / Fold change vs veh, LARP1B / RFU, RASA1 / Fold change vs veh, RASA1 / RFU, RB1 / Fold change vs veh, RB1 / RFU, PPFIA1 / Fold change vs veh, PPFIA1 / RFU, MAT2A / Fold change vs veh, MAT2A / RFU, CCT5 / Fold change vs veh, CCT5 / RFU, WDR92 / Fold change vs veh, WDR92 / RFU, CUX1 / Fold change vs veh, CUX1 / RFU, TTC7A / Fold change vs veh, TTC7A / RFU, TMEM135 / Fold change vs veh, TMEM135 / RFU, DEPTOR / Fold change vs veh, DEPTOR / RFU, CPM / Fold change vs veh, CPM / RFU, DNAJB6 / Fold change vs veh, DNAJB6 / RFU, CACNA2D3 / Fold change vs veh, CACNA2D3 / RFU, DTX4 / Fold change vs veh, DTX4 / RFU, TFCP2 / Fold change vs veh, TFCP2 / RFU, GMCL1 /// GMCL1P1 / Fold change vs veh, GMCL1 /// GMCL1P1 / RFU, AEBP2 / Fold change vs veh, AEBP2 / RFU, SNHG1 /// SNORD22 /// SNORD25 /// SNORD26 /// SNORD27 /// SNORD28 /// SNORD29 /// SNORD31 / Fold change vs veh, SNHG1 /// SNORD22 /// SNORD25 /// SNORD26 /// SNORD27 /// SNORD28 /// SNORD29 /// SNORD31 / Fold change (Aza/veh), C12orf56 (ProbeSet 11735607_a_at) / Fold change (ACY-1035/veh), C12orf56 (ProbeSet 11735607_a_at) / Fold change (Aza/veh), FGFR1OP (ProbeSet 11751329_s_at) / Fold change (ACY-1035/veh), FGFR1OP (ProbeSet 11751329_s_at) / Fold change (Aza/veh), VPS36 (ProbeSet 11739960_a_at) / Fold change (ACY-1035/veh), VPS36 (ProbeSet 11739960_a_at) / RFU SYPL1 (11715823_x_at) / Fold change /veh SYPL1 (11715823_x_at) / RFU IGFBP7 (11715501_s_at) / Fold change /veh IGFBP7 (11715501_s_at) / RFU REEP3 (11722064_at) / Fold change /veh REEP3 (11722064_at) / RFU IGLL1 (11728026_x_at) / Fold change /veh IGLL1 (11728026_x_at): dose or concentration left out as unconfirmed.

With `Nc1ccc(-c2cccs2)cc1NC(=O)c1ccc2c(c1)cc(C1CC1)n2CCN1CCOCC1` [ACY-1035], the “Fold change vs veh, DGCR2” value is reported as 1.13.
